Data as given in patent publication US20090196826A1, “COMPOSITIONS AND METHODS OF MAKING NON-SPHERICAL MICRO- AND NANO-PARTICLES” (BOARD OF REGENTS, THE UNIVERSITY OF TEXAS SYSTEM, priority 2007, published 2009).

System: subcutaneous A549 lung tumor xenograft
Assay: antitumor efficacy in subcutaneous A549 lung tumor xenograft (caliper)
Format: in vivo, mice
Conditions: equivalent DOX dose 4 mg/kg i.v. at day 0, 2, 5 and 10
Experimental: In a separate study, we have systematically investigated the antitumor efficacy of cRGD-encoded micelles in a subcutaneous A549 lung tumor xenograft study. Tumor size was measured by a caliper and normalized to that at day 0 before treatment. In this study, animals were treated with an equivalent DOX dose at 4 mg/kg for free drug, 0 and 16% cRGD-DOX-SPIO micelles, and coadministration of 16% cRGD-DOX-SPIO micelles with free cRGD peptides ([…]). Free drug or drug-encapsulated micelles were injected i.v. (bolus) into the tail vein at day 0, 2, 5 and 10. The control group was injected with phosphate buffer saline (PBS). Three animals were used for each sample group.

COc1cccc2c1C(=O)c1c(O)c3c(c(O)c1C2=O)C[C@@](O)(C(=O)CO)C[C@@H]3O[C@H]1C[C@H](N)[C@H](O)[C@H](C)O1 [free DOX, doxorubicin]
tumor size change: did not change dramatically
